Measured values taken from patent US20220331348A1, “METHOD OF PREPARING PENTACYCLIC TRITERPENOID SAPONINS AND DRUG COMPOSITION” (CHINA PHARMACEUTICAL UNIVERSITY, priority 2019, published 2022).
Marks after values point to notes of the source that are not given here.

Columns and labels:
[1] = system: high fat diet induced NASH model rats; test: High fat diet (HFD) induced NASH rat model; type: in vivo; conditions: for Liver TC / Liver TG / Serum LDL-c / Serum TG: HFD induced NASH model rats; for Liver TC / Liver TG / Serum LDL-c / Serum TG / ALT / AST: n = 8; for ALT / AST: serum of HFD induced NASH model rats
Procedure: Animal: 32 SD male rats of SPF level with 6 weeks old and 220 g were purchased from Beijing Vital River Laboratory Animal Technology Co., Ltd. All the animals maintained 12 h alternative circadian rhythm with free access to food.
Reagent: the ginsenoside Ro (I) was purchased from Shanghai Boka Chemistry Technology Co., Ltd; obeticholic acid (OCA) was purchased from Jiangsu Vcare PharmaTech Co., Ltd; high fat diets were purchased from Research Diets (D12492, 60 kcal %); and standard feeds were purchased from Research Diets (D12450B, 10 kcal %).
The rats were randomly divided into 4 groups based on the weight: a control group (CHOW), a high fat diet model group (HFD), a positive drug obeticholic acid (OCA, 5 mg/Kg) group (HFD+OCA) and a ginsenoside Ro (Ro for short, 5 mg/kg) group (HFD+Ro). The control group was fed with the standard feeds and drank water normally; and the rest groups were fed with the high fat diets, drank 10% aqueous sucrose solution for replacing the water and were modeled for 20 weeks.
After 20 weeks, the control group and the high fat diet model group were given with a CMC-Na solution with the volume fraction of 0.5% intragastrically every day, the HFD+OCA group was given with the obeticholic acid (5 mg/Kg) intragastrically every day, and the HFD+Ro was given with the ginsenoside Ro (5 mg/Kg) intragastrically every day. Administration was conducted for 8 weeks, during which, the control group was given with the standard feeds and drank the water normally, and the rest three groups were given with the high fat diets and drank 10% aqueous sucrose solution. The rats in each group were weighed every day, weights, hairs, feces and activity conditions were carefully observed and recorded.
The rats were deprived of food but not water for 12 h in advance; and the next morning, blood was taken from eye sockets, the rats were sacrificed, and livers were harvested. Right liver lobule tissues were fixed with 4% paraformaldehyde for HE stained slicing. A part of liver tissues were divided into 3 parts, which were snap-frozen in liquid nitrogen for subsequent detection of other indexes.
Whole blood was left to still standing for 2 h at room temperature, centrifugation was conducted for 15 min at 3000 rpm, and a serum was collected. 100 Mg of liver tissues were taken and homogenized with 0.9 mL of precooled normal saline, a homogenate was centrifuged for 15 min at 4° C. and 3000 rpm, and a supernatant was taken. Both of the serum and the supernatant were sent to Pathologic Department of Hospital of Integrated Traditional Chinese and Western Medicine in Jiangsu Province for determination of levels of triglyceride (TG), total cholesterol (TC), low density lipoprotein cholesterin (LDL-c) and high density lipoprotein cholesterol (HDL-c) in the serum and levels of the TG and the TC in the supernatant of the homogenate of the liver tissues with the full-automatic biochemical analyzer.
Pretreated tissues were sent to Google Biotechnology Co., Ltd for preparing HE stained slices and oil red stained slices.
Liver tissues preserved at −80° C. were put in the liquid nitrogen, about 10 mg of the liver tissues were quickly dissected out, 500 μL of precooled tissue lysate was added, and the tissues were homogenized with a homogenizer and then left to lyse on ice for 30 min; and centrifugation was conducted for 15min at 4° C. and 12000 rpm, […] of a supernatant was sucked to a clean EP tube, […] of the supernatant was taken for BCA protein quantification, […] of 5*loading buffer was added in the rest protein supernatant for denaturing by boiling, SDS-PAGE electrophoresis was conducted subsequently, the proteins were transferred onto a PVDF membrane, then incubation and elution of a relevant antibody were conducted, and finally, a chemiluminescence apparatus was employed for imaging analysis.

[2] = system: TNBS modeled Crohn's disease model mice; test: 2,4,6-trinitrobenzene sulfonic acid (TNBS) modeled Crohn's disease model mice; type: in vivo, mouse; conditions: for colon length of the treatment group compared with the control group / expression level of inflammatory factor IL-1β / expression level of inflammatory factor TNF-α: dose not given; for expression level of inflammatory factor IL-1β / expression level of inflammatory factor TNF-α: vs model group
Procedure: C57BL/6 male mice with 6-8 weeks old were selected and randomly divided into a control group, a mode group, a treatment group and a positive control group. Expect for the control group, after the mice in the rest groups anesthetized with isoflurane, hoses were carefully inserted into colons of the mice from anuses, and […] of 1.5% 2,4,6-trinitrobenzene sulfonic acid (TNBS) was slowly injected. Before the hoses were pulled out, the mice were placed upside down for 1 min. First intragastric administration was conducted at the day of enema treatment, the mice in the control group and the model group were orally administered with carboxymethyl cellulose sodium as a placebo, the mice in the treatment group were orally administered with the ziyuglycoside II (purchased from Shanghai Boka Chemistry Technology Co., Ltd) (with a dosage of 5 mg/kg), and the mice in the positive drug group were orally administered with 5-aminosalicylic acid as a clinical drug (5-ASA, purchased from Shanghai Sangon Biological Engineering Co., Ltd) (with a dosage of 100 mg/kg). Administration was continuously conducted for 7 days. In the administration process, the states of the mice were observed every day, and weight changes of the mice were recorded.
Differences in weight change of the mice in various groups were compared, from which, ziyuglycoside II has the treatment effect on the 2, 4, 6-trinitrobenzene sulfonic acid (TNBS) modeled Crohn's disease model mice.
The above mice were sacrificed by cervical dislocation at day 8, colon tissues were harvested, lengths of the colon tissues were measured for statistical summary, and differences in colon length of various groups were compared, from which, the ziyuglycoside II has significant treatment effect on the Crohn's disease model mice. […] 10 mg of proximal rectum segments of the colon tissues of the above mice were selected, PBS was added for homogenization, and centrifugation was conducted for taking a supernate. The supernate was subjected to ELISA detection, and protein quantification was conducted for inflammatory factors TNF- and IL-1. […] Myeloperoxidase (MPO) is an enzyme specific to neutrophils, and the amount of the neutrophils in the intestinal tracts may be reflected by detecting the MPO level. 5 mg of proximal rectum segments of the colon tissues of the above mice were selected, PBS was added for homogenization, and the content of the MPO in a homogenate was detected with a MPO kit (purchased from Nanjing Jiancheng Bioengineering Institute). […] Therefore, the ziyuglycoside II is expected to be useful for preparing the drug for preventing or treating the inflammatory bowel diseases such as the Crohn's disease.

[3] = HFD NASH rats, summary in words
[4] = 5 mg/kg orally, vs model group (FIG. 14 A)
[5] = HFD NASH rats, 5 mg/Kg intragastrically every day, 8 weeks (FIG. 4)
[6] = HFD NASH rats, 5 mg/Kg, 8 weeks, q-PCR (FIG. 6)
[7] = HFD NASH rats, 5 mg/Kg, 8 weeks, q-PCR (FIG. 7)

| SMILES | inflammatory responses of the livers [1, 3] | lipid accumulation, caused by the high fat diets, of the rat livers [1, 3] | Liver TC ([1]; 5 mg/Kg) | Liver TG ([1]; 5 mg/Kg) | Serum LDL-c ([1]; 5 mg/Kg) | Serum TG ([1]; 5 mg/Kg) | ALT ([1]; 5 mg/Kg) | AST ([1]; 5 mg/Kg) | colon length of the treatment group compared with the control group [2] | expression level of inflammatory factor IL-1β [2] | expression level of inflammatory factor TNF-α [2] | also measured |
| --- | --- | --- | --- | --- | --- | --- | --- | --- | --- | --- | --- | --- |
| C[C@@H]1CC[C@]2(C(=O)O)CC[C@]3(C)C(=CC[C@@H]4[C@@]5(C)CC[C@H](O[C@@H]6OC[C@H](O)[C@H](O)[C@H]6O)C(C)(C)[C@@H]5CC[C@]43C)[C@@H]2[C@]1(C)O [(XIII), ziyuglycoside II] | inhibit | effectively lower | 0.503 ± 0.256** mmoL/gprot | 1.299 ± 0.387** mmoL/gprot | 45.36 ± 5.37** mg/dL | 19.41 ± 4.37* mg/dL | 69.28 ± 12.33** U/L | 122.16 ± 17.38** U/L | nearly no difference | significantly lower than those of the model group | significantly lower than those of the model group | content of the MPO in colon tissues ([2]; 5 mg/kg (FIG. 14 B)): significantly lowered; drop scope of weight loss ([2]; 5 mg/kg orally, 7 days, vs model group (FIG. 13 A)): obviously lower than that of the model group; colon lengths ([2]; 5 mg/kg orally, day 8, vs model group (FIG. 13 B)): significantly larger than those of the model group; expression level of inflammatory factor IL-1 in colon tissue (ELISA) [2, 4]: significantly lower than those of the model group; expression level of inflammatory factor TNF- in colon tissue (ELISA) [2, 4]: significantly lower than those of the model group |
| CC1(C)CC[C@]2(C(=O)O[C@@H]3O[C@H](CO[C@@H]4O[C@H](CO)[C@@H](O)[C@H](O)[C@H]4O)[C@@H](O)[C@H](O)[C@H]3O)CC[C@]3(C)C(=CC[C@@H]4[C@@]5(C)CC[C@H](O[C@@H]6OC[C@H](O)[C@H](O)[C@H]6O)[C@@](C)(CO)[C@@H]5CC[C@]43C)[C@@H]2C1 [(II), asperosaponin VI] |  |  |  |  |  |  |  |  | nearly no difference | significantly lower than those of the model group | significantly lower than those of the model group |  |
| C[C@@H]1O[C@@H](O[C@H]2[C@H](O[C@H]3CC[C@@]4(C)[C@@H](CC[C@]5(C)[C@@H]4CC=C4[C@@H]6CC(C)(C)CC[C@]6(C(=O)O)CC[C@]45C)[C@]3(C)CO)OC[C@H](O)[C@@H]2O)[C@H](O)[C@H](O)[C@H]1O [(X), α-hederin] |  |  |  |  |  |  |  |  | nearly no difference | significantly lower than those of the model group | significantly lower than those of the model group |  |
| C[C@H]1O[C@@H](O[C@H]2CC[C@@]3(C)[C@@H](CC[C@]4(C)[C@@H]3C=C[C@]35OC[C@@]6(CCC(C)(C)C[C@H]63)[C@H](O)C[C@]54C)[C@]2(C)CO)[C@H](O)[C@@H](O[C@@H]2O[C@H](CO)[C@@H](O)[C@H](O)[C@H]2O)[C@H]1O [(VIII), saikosaponin D] | inhibit | effectively lower | 0.509 ± 0.248** mmoL/gprot | 1.173 ± 0.606*** mmoL/gprot | 46.75 ± 7.35** mg/dL | 19.66 ± 5.12* mg/dL | 67.74 ± 8.29** U/L | 121.43 ± 9.28** U/L | nearly no difference | significantly lower than those of the model group | significantly lower than those of the model group |  |
| C[C@@H]1O[C@@H](O[C@H]2[C@H](O[C@H]3CC[C@@]4(C)[C@@H](CC[C@]5(C)[C@@H]4CC=C4[C@@H]6CC(C)(C)CC[C@]6(C(=O)O[C@@H]6O[C@H](CO[C@@H]7O[C@H](CO)[C@@H](O[C@@H]8O[C@@H](C)[C@H](O)[C@@H](O)[C@H]8O)[C@H](O)[C@H]7O)[C@@H](O)[C@H](O)[C@H]6O)CC[C@]45C)[C@]3(C)CO)OC[C@H](O)[C@@H]2O)[C@H](O)[C@H](O)[C@H]1O [(XI), hederacoside C] |  |  |  |  |  |  |  |  | nearly no difference | significantly lower than those of the model group | significantly lower than those of the model group |  |
| CC1(C)CC[C@]2(C(=O)O[C@@H]3O[C@H](CO)[C@@H](O)[C@H](O)[C@H]3O)CC[C@]3(C)C(=CC[C@@H]4[C@@]5(C)CC[C@H](O[C@@H]6O[C@H](C(=O)O)[C@@H](O)[C@H](O)[C@H]6O[C@@H]6O[C@H](CO)[C@@H](O)[C@H](O)[C@H]6O)C(C)(C)[C@@H]5CC[C@]43C)[C@@H]2C1 [(I), ginsenoside Ro] | inhibits | significantly lower |  |  |  |  |  |  | nearly no difference | significantly lower than those of the model group | significantly lower than those of the model group | level of the HDL-c in the serum [1, 5]: effectively lower; level of the LDL-c in the serum [1, 5]: effectively lower; level of the TC in the serum [1, 5]: effectively lower; contents of the TC in the livers ([1]; HFD NASH rats, 5 mg/Kg intragastrically every day, 8 weeks (FIG. 5)): significantly lowered; level of the TG in the serum ([1]; HFD NASH rats, 5 mg/Kg intragastrically every day, 8 weeks, vs HFD model group (FIG. 4)): significantly lower; level of the TG in the liver ([1]; HFD NASH rats, 5 mg/Kg intragastrically every day, 8 weeks, vs HFD model group (FIG. 5)): significantly lower; mRNA expression level of IL-6 in liver [1, 6]: significantly inhibit increase; mRNA expression level of IL-10 in liver [1, 6]: significantly inhibit increase; mRNA expression level of TNF-α in liver [1, 6]: significantly inhibit increase; mRNA expression level of TGF-β in liver [1, 7]: significantly inhibit increase; mRNA expression level of α-SMA in liver [1, 7]: significantly inhibit increase; liver fibrosis [1, 3]: inhibits |
